Assay results reported in the NIST ThermoML archive (doi:10.1021/je7006692).

Test: relative permittivity at zero frequency (dimensionless)
Settings: Liquid

Cc1ccccc1 [toluene]
Reentrant cavity resonator
Settings	relative permittivity at zero frequency
290.63 K, 100 kPa	2.40453
290.65 K, 100 kPa	2.40448
290.69 K, 2170 kPa	2.41272
290.77 K, 4240 kPa	2.41409
290.81 K, 6310 kPa	2.41721
290.83 K, 8370 kPa	2.4202
290.87 K, 12510 kPa	2.42629
290.88 K, 16100 kPa	2.43136
290.9 K, 16650 kPa	2.4322
291.15 K, 100 kPa	2.3983
292.65 K, 100 kPa	2.40346
294.8 K, 100 kPa	2.39092
310.68 K, 100 kPa	2.35675
310.79 K, 100 kPa	2.35646
311.94 K, 100 kPa	2.35363
314.47 K, 100 kPa	2.3479
315.68 K, 100 kPa	2.34035
315.77 K, 100 kPa	2.33999
315.78 K, 1140 kPa	2.34185
315.78 K, 8370 kPa	2.35428
315.79 K, 2170 kPa	2.34366
315.79 K, 3200 kPa	2.34545
315.79 K, 4240 kPa	2.34729
315.79 K, 6310 kPa	2.35078
315.79 K, 12510 kPa	2.36095
315.79 K, 16650 kPa	2.3674
315.79 K, 19410 kPa	2.37152
320.64 K, 100 kPa	2.32926
320.66 K, 1140 kPa	2.33114
324.52 K, 100 kPa	2.32053
324.53 K, 1140 kPa	2.32241
324.54 K, 2170 kPa	2.32435
324.54 K, 3200 kPa	2.32625
324.54 K, 4240 kPa	2.32811
324.54 K, 6310 kPa	2.33179
324.58 K, 8370 kPa	2.33528
324.61 K, 12510 kPa	2.34222
324.62 K, 16650 kPa	2.34897
339.31 K, 100 kPa	2.28784
339.35 K, 2170 kPa	2.2919
339.38 K, 4240 kPa	2.29596
339.38 K, 6310 kPa	2.29992
339.39 K, 8370 kPa	2.3038
339.41 K, 12510 kPa	2.31127
339.41 K, 16650 kPa	2.31844
357.44 K, 6310 kPa	2.26156
357.45 K, 2170 kPa	2.25261
357.45 K, 4240 kPa	2.25717
357.46 K, 100 kPa	2.24793
357.52 K, 8370 kPa	2.26578
357.54 K, 12510 kPa	2.274
357.55 K, 16650 kPa	2.28185
390.53 K, 170 kPa	2.17781
390.53 K, 2170 kPa	2.18342
390.59 K, 100 kPa	2.17698
390.59 K, 4240 kPa	2.18899
390.61 K, 6310 kPa	2.19431
390.63 K, 8370 kPa	2.19969
390.65 K, 12510 kPa	2.20969
390.68 K, 16650 kPa	2.21925
405.84 K, 2170 kPa	2.14947
406.3 K, 6310 kPa	2.16081
406.32 K, 4240 kPa	2.15467
406.37 K, 8370 kPa	2.16653
406.54 K, 12510 kPa	2.17721
406.64 K, 16650 kPa	2.18731

Settings	relative permittivity at zero frequency
297.37 K, 34905 kPa	2.443
297.37 K, 41879 kPa	2.4564
297.38 K, 27906 kPa	2.4276
297.39 K, 20942 kPa	2.4127
297.4 K, 13927 kPa	2.3962
297.41 K, 6919 kPa	2.3777
